Measurements as given in patent publication US6403633B2, “Heteroaryl amidines, methylamidines and guanidines, and use thereof as protease inhibitors” (3-Dimensional Pharmaceuticals, Inc., priority 1998, dated 2002).
Structures can show the parent of a compound that is named as a salt. One block for each molecule: values may come before it.

How the values were obtained:
Assay type in all cases: biochemical
C1S = molecular target: T1, C1S (Homo sapiens, UniProt P09871); experiment: In vitro inhibition of purified enzymes, Ki determination: C1S; conditions: no enzyme-specific conditions printed
T1 sequence (P09871 16-688): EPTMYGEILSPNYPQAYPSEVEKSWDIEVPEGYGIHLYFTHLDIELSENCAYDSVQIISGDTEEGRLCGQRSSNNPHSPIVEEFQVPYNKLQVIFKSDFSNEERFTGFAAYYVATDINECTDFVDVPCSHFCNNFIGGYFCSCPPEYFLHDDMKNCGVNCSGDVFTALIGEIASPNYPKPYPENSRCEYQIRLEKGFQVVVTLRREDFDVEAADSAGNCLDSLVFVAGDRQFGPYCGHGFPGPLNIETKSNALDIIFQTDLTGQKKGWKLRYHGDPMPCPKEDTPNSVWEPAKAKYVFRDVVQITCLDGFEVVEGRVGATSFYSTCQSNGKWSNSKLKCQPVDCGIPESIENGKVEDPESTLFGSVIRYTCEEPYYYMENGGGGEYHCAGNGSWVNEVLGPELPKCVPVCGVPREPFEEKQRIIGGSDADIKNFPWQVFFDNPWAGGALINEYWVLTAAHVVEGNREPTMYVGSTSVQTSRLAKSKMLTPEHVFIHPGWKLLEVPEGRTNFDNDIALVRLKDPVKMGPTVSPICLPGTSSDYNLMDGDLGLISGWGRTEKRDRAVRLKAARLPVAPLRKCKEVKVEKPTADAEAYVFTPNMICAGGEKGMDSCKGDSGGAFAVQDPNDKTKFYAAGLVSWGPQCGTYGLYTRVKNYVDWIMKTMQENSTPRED
Description: (§1) Human α-thrombin, human factor Xa and human plasmin were obtained from Enzyme Research Laboratories (South Bend, Ind.). Bovine α-chymotrypsin (Sigma C4129), bovine trypsin (Sigma T8642) and human kidney cell urokinase (Sigma U5004) were obtained from Sigma. Human leukocyte elastase was obtained from Elastin Products (Pacific, Mo.). Ki Determinations: All assays are based on the ability of the test compound to inhibit the enzyme catalyzed hydrolysis of a peptide p-nitroanilide substrate. […] The final concentrations for each of the substrates is listed below. In general, substrate concentrations are lower than the experimentally determined value for Km. […]
(§2) In a typical Ki determination, into each well of a 96 well plate is pipetted 280 μL of substrate solution, 10 μL of test compound solution, and the plate allowed to thermally equilibrate at 37° C. in a Molecular Devices plate reader for >15 minutes. Reactions were initiated by the addition of a 10 μL aliquot of enzyme and the absorbance increase at 405 nm is recorded for 15 minutes. […] The ratio of the velocity (rate of change in absorbance as a function of time) for a sample containing no test compound is divided by the velocity of a sample containing test compound, and is plotted as a function of test compound concentration. The data are fit to a linear regression, and the value of the slope of the line calculated. […]

human factor Xa = molecular target: T2, human factor Xa (Homo sapiens, UniProt P00742); experiment: In vitro inhibition of purified enzymes, Ki determination: Factor Xa; conditions: substrate N-benzoyl-Ile-Glu-Gly-Arg-p-nitroanilide hydrochloride 51 μM, [FXa]=10 nM, pH 7.5, 37° C.
T2 construct: purchased Enzyme Research Laboratories
Description: (§3) Reagents: All buffer salts were obtained from Sigma Chemical Company (St. Louis, Mo.), and were of the highest purity available. The enzyme substrates, N-benzoyl-Phe-Val-Arg-p-nitroanilide (Sigma B7632), N-benzoyl-Ile-Glu-Gly-Arg-p-nitroanilide hydrochloride (Sigma B2291), N-p-tosyl-Gly-Pro-Lys-p-nitroanilide (Sigma T6140), N-succinyl-Ala-Ala-Pro-Phe-p-nitroanilide (Sigma S7388) and N-CBZ-Val-Gly-Arg-p-nitroanilide (Sigma C7271) were obtained from Sigma. N-Succinyl-Ala-Ala-Pro-Arg-p-nitroanilide (BACHEM L-1720) and N-succinyl-Ala-Ala-Pro-Val-p-nitroanilide (BACHEM L-1770) were obtained from BACHEM (King of Prussia, Pa).
(§4) Human α-thrombin, human factor Xa and human plasmin were obtained from Enzyme Research Laboratories (South Bend, Ind.). […] In general, substrate concentrations are lower than the experimentally determined value for Km. […]
(§5) In a typical Ki determination, into each well of a 96 well plate is pipetted 280 μL of substrate solution, 10 μL of test compound solution, and the plate allowed to thermally equilibrate at 37° C. in a Molecular Devices plate reader for >15 minutes. Reactions were initiated by the addition of a 10 μL aliquot of enzyme and the absorbance increase at 405 nm is recorded for 15 minutes. […] The data are fit to a linear regression, and the value of the slope of the line calculated. The inverse of the slope is the experimentally determined Ki value. […]

human plasmin = molecular target: T3, human plasmin (Homo sapiens, UniProt P00747); experiment: In vitro inhibition of purified enzymes, Ki determination: plasmin; conditions: substrate N-p-Tosyl-Gly-Pro-Lys-p-nitroanilide 37 μM, [Plasmin]=8 nM, pH 7.5, 37° C.
T3 construct: purchased Enzyme Research Laboratories
Description: as §3, §4, §5

tPA = tPA (Homo sapiens, UniProt P00750); experiment: In vitro inhibition of purified enzymes, Ki determination: tPA; conditions: no enzyme-specific conditions printed
Description: as §1, §2

Bovine α-chymotrypsin = molecular target: T4, Bovine α-chymotrypsin (Bos taurus, UniProt P00766); experiment: In vitro inhibition of purified enzymes, Ki determination: chymotrypsin; conditions: substrate N-succinyl-Ala-Ala-Pro-Phe-p-nitroanilide 14 μM, [Chymotrypsin]=2.7 nM, pH 7.5, 37° C.
T4 construct: purchased Sigma C4129
Description: as §3, §4, §5

T2 sequence (P00742 235-488 limits assumed): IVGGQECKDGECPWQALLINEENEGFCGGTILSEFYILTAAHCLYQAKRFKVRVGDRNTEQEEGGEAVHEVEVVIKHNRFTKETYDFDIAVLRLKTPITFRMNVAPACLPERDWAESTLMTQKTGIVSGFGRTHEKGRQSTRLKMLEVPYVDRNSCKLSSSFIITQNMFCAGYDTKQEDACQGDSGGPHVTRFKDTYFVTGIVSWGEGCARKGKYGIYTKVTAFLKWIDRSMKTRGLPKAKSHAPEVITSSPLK
T2 sequence (P00742 41-179 partner limits assumed): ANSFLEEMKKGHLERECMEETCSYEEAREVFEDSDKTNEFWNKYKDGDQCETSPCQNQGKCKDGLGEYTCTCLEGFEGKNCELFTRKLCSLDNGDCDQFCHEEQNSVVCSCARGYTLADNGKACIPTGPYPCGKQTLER
Sequence of tPA (P00750 36-562, species assumed): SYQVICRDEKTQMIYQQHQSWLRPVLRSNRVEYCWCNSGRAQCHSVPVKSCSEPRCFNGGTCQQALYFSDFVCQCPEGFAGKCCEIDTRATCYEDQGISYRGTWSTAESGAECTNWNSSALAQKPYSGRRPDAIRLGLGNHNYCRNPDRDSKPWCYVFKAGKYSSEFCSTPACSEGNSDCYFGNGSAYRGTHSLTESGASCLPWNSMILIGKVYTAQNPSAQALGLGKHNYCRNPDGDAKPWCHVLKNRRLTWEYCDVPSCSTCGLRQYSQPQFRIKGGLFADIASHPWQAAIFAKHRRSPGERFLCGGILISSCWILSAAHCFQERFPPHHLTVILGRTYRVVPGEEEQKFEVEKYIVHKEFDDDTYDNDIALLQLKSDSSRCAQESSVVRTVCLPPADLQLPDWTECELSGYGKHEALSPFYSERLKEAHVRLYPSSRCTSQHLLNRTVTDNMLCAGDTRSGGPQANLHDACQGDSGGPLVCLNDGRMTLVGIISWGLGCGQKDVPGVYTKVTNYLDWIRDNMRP
T3 sequence (P00747 581-810 limits assumed): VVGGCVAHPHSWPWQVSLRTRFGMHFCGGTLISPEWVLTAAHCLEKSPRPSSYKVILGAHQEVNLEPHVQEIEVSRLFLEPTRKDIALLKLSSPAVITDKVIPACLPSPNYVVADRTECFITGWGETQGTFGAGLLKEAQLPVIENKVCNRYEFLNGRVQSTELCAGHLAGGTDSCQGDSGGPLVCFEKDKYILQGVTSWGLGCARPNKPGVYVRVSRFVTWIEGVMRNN
T3 sequence (P00747 97-580 partner limits assumed): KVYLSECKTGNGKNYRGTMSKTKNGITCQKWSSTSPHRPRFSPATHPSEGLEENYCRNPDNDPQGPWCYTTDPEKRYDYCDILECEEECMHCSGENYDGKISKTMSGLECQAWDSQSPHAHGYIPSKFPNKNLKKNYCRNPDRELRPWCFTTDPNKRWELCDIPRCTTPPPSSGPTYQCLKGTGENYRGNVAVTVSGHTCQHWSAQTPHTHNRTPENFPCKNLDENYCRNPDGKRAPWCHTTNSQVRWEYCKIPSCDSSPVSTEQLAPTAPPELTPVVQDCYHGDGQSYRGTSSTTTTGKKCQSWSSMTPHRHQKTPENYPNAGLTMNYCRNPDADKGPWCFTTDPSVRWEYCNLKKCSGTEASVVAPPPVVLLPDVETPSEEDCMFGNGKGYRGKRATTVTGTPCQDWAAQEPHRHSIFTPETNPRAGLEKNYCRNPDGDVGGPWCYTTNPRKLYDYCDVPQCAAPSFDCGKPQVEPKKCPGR

Molecule: 4-[Bis(phenylsulfonyl)amino]-5-methylthiophene-2-carboxamidine [Example 283]
Ki (C1S): 0.94 µM

Molecule: CSc1sc(C(N)=NC#N)cc1-c1nc(-c2ccccc2)cs1 [Example 94, 3-Amino-2-aza-3-[5-methylthio-4-(4-phenyl(1,3-thiazol-2-yl))(2-thienyl)]prop-2-enenitrile]
Ki (human factor Xa): 2.73 µM

Molecule: CSc1sc(C(=N)N)cc1-c1nc(-c2ccc3c(c2)OCCO3)cs1 [Example 12, 4-[4-(3,4-Ethylenedioxyphenyl)thiazol-2-yl]-5-methylthiothiophene-2-carboxamidine hydrochloride]
Ki (human plasmin): 7.31 µM

The remaining lines, values ahead:

Ki (tPA): 9.49 µM
Molecule: CSc1sc(C(=N)N)cc1-c1nc(-c2ccc(Cl)cc2)cs1 [Example 1, 4-[4-(4-chlorophenyl)(1,3-thiazol-2-yl)]-5-methylthiothiophene-2-carboxamidine]

Ki (human factor Xa): 3 µM
Molecule: CSc1sc(C(=N)N)cc1-c1nc(-c2sc3ccccc3c2Cl)cs1 [Example 119, 4-[4-(3-chlorobenzo[b]thiophen-2-yl)(1,3-thiazol-2-yl)]-5-methylthiothiophene-2-carboxamidine hydrochloride]

Ki (Bovine α-chymotrypsin): 4.9 µM
Molecule: CSc1sc(C(=N)N)cc1-c1nc(-c2ccc([N+](=O)[O-])cc2)cs1 [Example 11, 5-Methylthio-4-[4-(4-nitrophenyl)(1,3-thiazol-2-yl)]thiophene-2-carboxamidine hydrochloride]
